The values below come from patent US20140023611A1 (priority 2010, published 2014).

The target of one data set is T1, human NaP2b (SLC34A2) (Homo sapiens, UniProt O95436).
T1 construct: host or cells: HEK293
T1 sequence (O95436 1-690): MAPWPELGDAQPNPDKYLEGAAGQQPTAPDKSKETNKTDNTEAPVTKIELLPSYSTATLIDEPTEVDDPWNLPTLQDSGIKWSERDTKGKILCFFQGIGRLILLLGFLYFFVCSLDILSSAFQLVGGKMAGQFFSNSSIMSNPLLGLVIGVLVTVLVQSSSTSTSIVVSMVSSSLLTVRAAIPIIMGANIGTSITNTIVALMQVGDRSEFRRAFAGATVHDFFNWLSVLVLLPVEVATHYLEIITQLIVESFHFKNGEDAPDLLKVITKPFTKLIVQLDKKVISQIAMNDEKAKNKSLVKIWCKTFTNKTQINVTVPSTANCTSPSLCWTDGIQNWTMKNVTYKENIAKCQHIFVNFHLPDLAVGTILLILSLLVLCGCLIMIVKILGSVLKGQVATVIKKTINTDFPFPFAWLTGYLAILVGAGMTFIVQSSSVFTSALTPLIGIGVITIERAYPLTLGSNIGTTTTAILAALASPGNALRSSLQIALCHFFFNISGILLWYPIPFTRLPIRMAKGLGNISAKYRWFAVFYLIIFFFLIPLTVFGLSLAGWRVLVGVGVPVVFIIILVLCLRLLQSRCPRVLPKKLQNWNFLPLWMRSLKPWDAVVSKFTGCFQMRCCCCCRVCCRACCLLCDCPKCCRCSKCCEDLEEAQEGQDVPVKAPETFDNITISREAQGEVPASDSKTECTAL
Put plainly: Inhibition of NaP2b-mediated Pi (33P) uptake in transfected HEK293 cells, human NaP2b. The class given is cell-based. The following applies: for IC50: read-out: pIC50 range for human NaP2b (converted). The method in brief: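 HEK293 cells transiently transfected with human NaP2b (Thr inserted after residue 37, N39D), endogenous PiT transport pharmacologically silenced. Sodium or choline buffer, pH 7.4, with 100 uM KH2PO4, 33P orthophosphate and compound (0.1 nM–30 uM, twelve concentrations, duplicate). 3-30 min at room temperature, scintillation counting, pIC50 derived.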

Another data set deals with T2, rat NaP2b (SLC34A2) (Rattus norvegicus, UniProt Q9JJ09).
T2 construct: host or cells: HEK293
T2 sequence (Q9JJ09 1-695): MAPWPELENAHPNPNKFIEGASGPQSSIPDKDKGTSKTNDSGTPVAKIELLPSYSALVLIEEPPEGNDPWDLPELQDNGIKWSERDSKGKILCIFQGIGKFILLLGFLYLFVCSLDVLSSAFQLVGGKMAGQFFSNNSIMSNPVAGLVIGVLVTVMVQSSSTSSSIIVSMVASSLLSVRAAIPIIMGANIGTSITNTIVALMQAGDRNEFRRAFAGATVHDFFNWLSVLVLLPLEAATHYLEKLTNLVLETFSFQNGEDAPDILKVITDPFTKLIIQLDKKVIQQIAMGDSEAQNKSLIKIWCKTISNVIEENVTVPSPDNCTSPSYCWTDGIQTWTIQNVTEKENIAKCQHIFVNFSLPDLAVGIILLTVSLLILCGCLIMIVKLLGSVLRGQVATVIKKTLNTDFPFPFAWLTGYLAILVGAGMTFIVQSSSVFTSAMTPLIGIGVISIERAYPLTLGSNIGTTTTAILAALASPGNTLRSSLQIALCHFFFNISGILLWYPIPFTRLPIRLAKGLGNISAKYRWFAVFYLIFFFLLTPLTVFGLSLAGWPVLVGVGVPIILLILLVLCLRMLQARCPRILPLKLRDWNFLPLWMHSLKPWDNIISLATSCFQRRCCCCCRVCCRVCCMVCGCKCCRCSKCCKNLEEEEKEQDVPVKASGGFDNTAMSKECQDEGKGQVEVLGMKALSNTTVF
Put plainly: Inhibition of NaP2b-mediated Pi (33P) uptake in transfected HEK293 cells, rat NaP2b. Format: cell-based. Conditions: 33P Pi uptake, 0.1 mM phosphate, value given as pIC50 range. The method in brief: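 HEK293 cells were transiently transfected with NaP2b cDNA using Lipofectamine and grown near confluence. Compounds were tested at twelve concentrations from 0.1 nM to 30 uM in duplicate, and 33P-phosphate uptake was counted by scintillation after lysis. Results are expressed as pIC50.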

Data set [1] is described as follows: Determination of compound Cmax and AUC after oral gavage (plasma LC-MS/MS). Format: in vivo, Sprague-Dawley rats. Conditions: Sprague-Dawley, rat, plasma, po, Structure (I) examples, Table 15, actual oral dose 3-15 mg/kg, plasma 0.5-4 h. The procedure: Sprague-Dawley rats were orally gavaged with test article at a nominal dose of 2.5 or 10 mg/kg and blood was collected at 0.5, 1, 2 and 4 h. Blood samples were processed to plasma using K2EDTA as an anticoaglulant. Plasma samples were treated with acetonitrile containing an internal standard, precipitated proteins removed by centrifugation. Supernatants were analyzed by LC-MS/MS and compound concentrations were determined by interpolation from a standard curve prepared in plasma. All compounds were orally dosed at the dosage shown, and pharmacokinetic parameters determined.
(§1) Sprague-Dawley rats were orally gavaged with test article at a nominal dose of 2.5 or 10 mg/kg and blood was collected at 0.5, 1, 2 and 4 h. Blood samples were processed to plasma using K2EDTA as an anticoaglulant. Plasma samples were treated with acetonitrile containing an internal standard, precipitated proteins removed by centrifugation. Supernatants were analyzed by LC-MS/MS and compound concentrations were determined by interpolated from a standard curve prepared in plasma. All compounds were orally dosed at the dosage shown, and pharmacokinetic parameters determined.
as §1

The term AUC denotes the area under the concentration-time curve, a measure of exposure. Low values mean low exposure, high ones high exposure. A word on the Cmax: it is the maximum level reached in the sampled fluid or tissue. For `O=C(O)CCOCCOCCOCCNC(=O)c1cccc(SCc2cccc(C(=O)Nc3ccc(N4CCCCC4)cc3-c3cc(C(=O)N[C@H]4CCCc5ccccc54)ccn3)c2)c1` [Example 233, (S)-1-oxo-1-(3-(3-(4-(piperidin-1-yl)-2-(4-(1,2,3,4-tetrahydronaphthalen-1-ylcarbamoyl)pyridin-2-yl)phenylcarbamoyl)benzylthio)phenyl)-5,8,11-trioxa-2-azatetradecan-14-oic acid], the IC50 on human NaP2b (SLC34A2) was 1000 to 7940 nM. At rat NaP2b (SLC34A2), the IC50 is 1000 to 7940 nM. Moreover, in data set [1], the AUC is < 10 ng·h/mL and the Cmax was < 10 ng/mL.
For `CCN(CC)c1ccc(NC(=O)c2cccc(CSc3cccc(CC(=O)O)c3)c2)c(-c2cc(C(=O)NCc3cccc(C(F)(F)F)c3)ccn2)c1` [Example 143, 2-(3-(3-(4-(diethylamino)-2-(4-(3-(trifluoromethyl)benzylcarbamoyl)pyridin-2-yl)phenylcarbamoyl)benzylthio)phenyl)acetic acid], the IC50 at human NaP2b (SLC34A2) was < 1000 nM. Further, at rat NaP2b (SLC34A2), the IC50 was < 1000 nM. In data set [1], the area under the curve (AUC) was < 10 ng·h/mL and the Cmax is < 10 ng/mL.
Consider `CN(CCN1CCC[C@H]1C(=O)OC(C)(C)C)C(=O)c1cccc(C(=O)Nc2ccc(N3CCCCC3)cc2-c2cc(C(=O)N[C@H]3CCCc4ccccc43)ccn2)c1` [Example 187, (S)-tert-butyl 1-(2-(N-methyl-3-((4-(piperidin-1-yl)-2-(4-(((S)-1,2,3,4-tetrahydronaphthalen-1-yl)carbamoyl)pyridin-2-yl)phenyl)carbamoyl)benzamido)ethyl)pyrrolidine-2-carboxylate], for which the IC50 was 1000 to 7940 nM at human NaP2b (SLC34A2) and < 1000 nM against rat NaP2b (SLC34A2).
Regarding “16-(3-(4-(16-(3-(4-(diethylamino)-2-(4-(3-(trifluoromethyl)benzylcarbamoyl)pyridin-2-yl)phenylcarbamoyl)phenyl)-4,7,10,13-tetraoxahexadecane)piperazine-1-carbonyl)phenyl)-4,7,10,13-tetraoxahexadecan-1-oic acid [Example 293]”, the “pIC50 range for human NaP2b” value on human NaP2b (SLC34A2) (33P Pi uptake, transfected HEK293 cells, 0.1 mM phosphate, value given as pIC50 range) is 5.1-6.0. Also, the “pIC50 range for rat Nap2b” value against rat NaP2b (SLC34A2) is reported as 5.1-6.0.
Regarding `O=C(O)CCOCCOCCOCCOCCCc1cccc(SCc2cccc(C(=O)Nc3ccc(N4CCCCC4)cc3-c3cc(C(=O)N[C@H]4CCCc5ccccc54)ccn3)c2)c1` [Example 247, 3-(2-(2-(2-(3-(3-((30S)-3-((2-(4-(((S)-1,2,3,4-tetrahydronaphthalen-1-yl)carbamoyl)pyridin-2-yl)-4-(piperidin-1-yl)phenyl)carbamoyl)benzylthio)phenyl)propoxy)ethoxy)ethoxy)ethoxy)propanoic acid], the IC50 on human NaP2b (SLC34A2) and against rat NaP2b (SLC34A2) was 1000 to 7940 nM in each case.
As for `CCN(CC)c1ccc(NC(=O)c2cccc(CCCOCCOCCOCCOCCC(=O)N(CCO)CCO)c2)c(-c2cc(C(=O)N[C@H]3CCCc4ccccc43)ccn2)c1` [Example 282], the IC50 was 1000 to 7940 nM at human NaP2b (SLC34A2) and < 1000 nM against rat NaP2b (SLC34A2).
With `CCN(CC)c1ccc(NC(=O)c2cccc(CCCOCCOCCOCCOCCOCCOCCC(=O)O)c2)c(-c2cc(C(=O)N[C@H]3CCCc4ccccc43)ccn2)c1` [Example 304, (S)-22-(3-(4-(diethylamino)-2-(4-(1,2,3,4-tetrahydronaphthalen-1-ylcarbamoyl)pyridin-2-yl)phenylcarbamoyl)phenyl)-4,7,10,13,16,19-hexaoxadocosan-1-oic acid], the IC50 on human NaP2b (SLC34A2) and on rat NaP2b (SLC34A2) was < 1000 nM in each case.
For `CN(CCN1CCC(C(=O)OC(C)(C)C)CC1)C(=O)c1cccc(C(=O)Nc2ccc(N3CCCCC3)cc2-c2cc(C(=O)N[C@H]3CCCc4ccccc43)ccn2)c1` [Example 244, (S)-tert-butyl 1-(2-(N-methyl-3-(4-(piperidin-1-yl)-2-(4-(1,2,3,4-tetrahydronaphthalen-1-ylcarbamoyl)pyridin-2-yl)phenylcarbamoyl)benzamido)ethyl)piperidine-4-carboxylate], the IC50 on human NaP2b (SLC34A2) and against rat NaP2b (SLC34A2) was 1000 to 7940 nM each time.
As to `O=C(O)c1cccc(COc2cccc(C(=O)Nc3ccc(N4CCCCC4)cc3-c3cc(C(=O)NCc4cccc(C(F)(F)F)c4)ccn3)c2)c1` [Example 183, 3-((3-(4-(piperidin-1-yl)-2-(4-(3-(trifluoromethyl)benzylcarbamoyl)pyridin-2-yl)phenylcarbamoyl)phenoxy)methyl)benzoic acid], the IC50 at human NaP2b (SLC34A2) and on rat NaP2b (SLC34A2) was 1000 to 7940 nM in each case.
As for `O=C(O)CCOCCOCCOCCNC(=O)c1cccc2c1ccn2Cc1cccc(C(=O)Nc2ccc(N3CCCCC3)cc2-c2cc(C(=O)NCc3cccc(C(F)(F)F)c3)ccn2)c1` [Example 9.2, 1-Oxo-1-(1-(3-((4-(piperidin-1-yl)-2-(4-((3-(trifluoromethyl)benzyl)carbamoyl)pyridin-2-yl)phenyl)carbamoyl)benzyl)-1H-indol-4-yl)-5,8,11-trioxa-2-azatetradecan-14-oic acid], the IC50 was < 1000 nM at human NaP2b (SLC34A2) and 1000 to 7940 nM on rat NaP2b (SLC34A2).
Turning to `CCN(CC)c1ccc(NC(=O)c2cccc(C#CCOCCOCCOCCOCCO)c2)c(-c2cc(C(=O)NCc3cccc(C(F)(F)F)c3)ccn2)c1` [Example 266, 2-(5-(diethylamino)-2-(3-(1-hydroxy-3,6,9,12-tetraoxapentadec-14-yn-15-yl)benzamido)phenyl)-N-(3-(trifluoromethyl)benzyl)isonicotinamide], the IC50 at human NaP2b (SLC34A2) and against rat NaP2b (SLC34A2) was 1000 to 7940 nM throughout.
Regarding `CCN(CC)c1ccc(NC(=O)c2cccc(C(=O)N(C)CCN3CCCC[C@H]3C(=O)NCCOCCOCCOCCOCCOCCOCCOCCOC)c2)c(-c2cc(C(=O)NCc3cccc(C(F)(F)F)c3)ccn2)c1` [Example 201, (S)—N^1-(2-(2-(2,5,8,11,14,17,20,23-octaoxapentacosan-25-yl-carbamoyl)piperidin-1-yl)ethyl)-N^3-(4-(diethylamino)-2-(4-((3-(trifluoromethyl)benzyl)carbamoyl)pyridin-2-yl)phenyl)-N^1-methylisophthalamide], the IC50 on human NaP2b (SLC34A2) and at rat NaP2b (SLC34A2) was 1000 to 7940 nM each time.
With `CCN(CC)c1ccc(NC(=O)c2cccc(CSCCOCCOCCOCCOCCC(=O)NC(CO)CO)c2)c(-c2cc(C(=O)N[C@H]3CCCc4ccccc43)ccn2)c1` [Example 159, (S)-2-(5-(diethylamino)-2-(3-(20-hydroxy-19-(hydroxymethyl)-17-oxo-5,8,11,14-tetraoxa-2-thia-18-azaicosyl)benzamido)phenyl)-N-(1,2,3,4-tetrahydronaphthalen-1-yl)isonicotinamide], the IC50 at human NaP2b (SLC34A2) and against rat NaP2b (SLC34A2) was < 1000 nM each time.
